Data on eight molecules can be found in DBAASP.

≈ marks a conversion by molar mass, not a printed value. Where “and” joins values, the source holds several entries; their conditions need not be identical. Equal values may be shown once.

Test systems include Escherichia coli C600; Escherichia coli 1005; Candida albicans; Escherichia coli UTI89.
Holding throughout (assay): ≥ marks a high value that may be exact or a test limit, other limits are often not marked, values filed in µg/mL are converted to µM
Assay [1] deals with Staphylococcus aureus 209P.
Assay [2] has as its system Bacillus subtilis VKM B-501.
For assay [3], the system named is Streptococcus pneumoniae ATCC 11733.
In assay [4] the test system is Bacillus thuringiensis ATCC 10792.
Assay [5] relates to Streptococcus mutans AU159.
The test system of assay [6] is Escherichia coli ATCC 25922.
In assay [7] the test system is Staphylococcus aureus ATCC 25923.
In assay [8] the test system is Pseudomonas aeruginosa ATCC 13388.
Assay [9] deals with Pseudomonas aeruginosa ATCC 15422.
For assay [10], the system named is Salmonella enterica subsp. enterica serovar Typhimurium ATCC 14028.
Assay [11] deals with Salmonella enterica subsp. enterica serovar Choleraesuis ATCC 10708.
For assay [12], the system named is Bacillus cereus ATCC 11778.
Assay [13] deals with Staphylococcus aureus CCT 2580.
For assay [14], the system named is Staphylococcus aureus CCT 6538.
Assay [15] has as its system Enterococcus faecium CCT 5079.
Assay [16] concerns Micrococcus luteus ATCC 4698.
Assay [17] has as its system Enterococcus hirae ATCC 10541.
Assay [18] relates to Escherichia coli ATCC 11775.
Assay [19] concerns Escherichia coli CCT 1457.
The subject of assay [20] is Staphylococcus epidermidis ATCC 12228.
In assay [21] the test system is Candida albicans ATCC 14053.
The test system of assay [22] is Micrococcus luteus ATCC 49732.
In assay [23] the test system is Staphylococcus aureus ATCC 12600.
For assay [24], the system named is Salmonella enterica subsp. enterica serovar Pullorum ATCC 7913.
Assay [25] relates to Candida parapsilosis CGMCC 2.3989.
Assay [26] has as its system Staphylococcus aureus ATCC 29213.
Assay [27] relates to Staphylococcus aureus ATCC 43300.
Assay [28] relates to Candida tropicalis CGMCC 2.1975.
Assay [29] concerns Candida krusei CGMCC 2.1857.
Assay [30] deals with Staphylococcus epidermidis.
The test system of assay [31] is Escherichia coli K12 MG1655.
In assay [32] the test system is Candida albicans CGMCC 2.2086.

As for `CC[C@H](C)[C@H](NC(=O)[C@H](C)NC(=O)[C@H](CCCCN)NC(=O)[C@H](CCCN=C(N)N)NC(=O)CNC(=O)[C@H](Cc1ccccc1)NC(=O)[C@H](CCCCN)NC(=O)[C@H](CCCCN)NC(=O)[C@H](CCC(N)=O)NC(=O)[C@H](CC(C)C)NC(=O)[C@H](CCCCN)NC(=O)CNC(=O)[C@H](Cc1ccccc1)NC(=O)[C@H](CC(C)C)NC(=O)CN)C(=O)N[C@@H](CO)C(=O)N[C@@H](Cc1ccc(O)cc1)C(=O)N[C@@H](C)C(=O)N[C@H](C(=O)N[C@@H](CCCCN)C(=O)N[C@@H](CCCCN)C(=O)N[C@@H](C)C(=O)N[C@@H](CCCN=C(N)N)C(=O)NCC(=O)N[C@@H](CCCCN)C(=O)N[C@@H](Cc1cnc[nH]1)C(=O)O)C(C)C` [GLFGKLQKKFGRKAISYAVKKARGKH], the values for the MIC (in assay [1]; in assay [2]; against Escherichia coli C600) were at least 36 µM, 1.5 µM (≈ 4.38 µg/mL) and 6 µM (≈ 17.5 µg/mL), respectively.
With `CC[C@H](C)[C@H](N)C(=O)N[C@@H](CC(N)=O)C(=O)N[C@@H](Cc1c[nH]c2ccccc12)C(=O)N[C@@H](CCCCN)C(=O)N[C@@H](CCCCN)C(=O)N[C@H](C(=O)N[C@@H](CCCCN)C(=O)N[C@@H](CCCCN)C(=O)N[C@@H](CCCCN)C(=O)N[C@H](C(=O)N[C@@H](C)C(=O)NCC(=O)N[C@@H](CCSC)C(=O)N[C@@H](CC(C)C)C(N)=O)C(C)C)[C@@H](C)CC` [INWKKIKKKVAGML], the MIC is 0.604 µM (≈ 0.999 µg/mL) in assay [3]; 18.7 µM (≈ 31 µg/mL) in assay [4]; 2.41 µM (≈ 4 µg/mL) in assay [5]; 9.66 µM (≈ 16 µg/mL) in assay [6]; 1.21 µM (≈ 2 µg/mL) in [7]; 2.41 µM (≈ 4 µg/mL) in assay [8]. Besides, the MIC was 4.83 µM (≈ 8 µg/mL) in [9]; 2.41 µM (≈ 4 µg/mL) in [10]; 18.7 µM (≈ 31 µg/mL) in assay [11]; 18.7 µM (≈ 31 µg/mL) in assay [12]; 1.21 µM (≈ 2 µg/mL) in assay [13]; 2.41 µM (≈ 4 µg/mL) in assay [14]. The MIC in [15] is 1.21 µM (≈ 2 µg/mL); in [16], 0.604 µM (≈ 0.999 µg/mL); in assay [17], 18.7 µM (≈ 31 µg/mL); in assay [18], 2.41 µM (≈ 4 µg/mL); in [19], 2.41 µM (≈ 4 µg/mL); in assay [20], 0.604 µM (≈ 0.999 µg/mL).
`CC(C)[C@H](NC(=O)[C@H](C)NC(=O)[C@@H](NC(=O)CNC(=O)[C@H](C)N)[C@@H](C)O)C(=O)N[C@@H](Cc1ccccc1)C(=O)N[C@@H](CCCCN)C(=O)O` [AGTAVFK]: the MIC in assay [21] is at least 321 µM; in assay [22] it was at least 963 µM; in [18] it was at least 107 µM; in [23], at least 107 µM.
As for `NC(=O)[C@H](CCCN=C(N)N)NC(=O)[C@H](Cc1ccccc1)NC(=O)[C@H](CCCN=C(N)N)NC(=O)[C@H](Cc1ccccc1)NC(=O)[C@H](Cc1ccccc1)NC(=O)[C@H](Cc1ccccc1)NC(=O)[C@H](CCCN=C(N)N)NC(=O)[C@H](Cc1ccccc1)NC(=O)[C@@H](N)CCCN=C(N)N` [RFRFFFRFR], the minimum inhibitory concentration (MIC) in assay [6] is 4 µM and > 2 µM; with Escherichia coli 1005, 4 µM (≈ 5.51 µg/mL); in assay [7] it was 4 µM (≈ 5.51 µg/mL); in assay [24], 2 µM (≈ 2.76 µg/mL); in [10], 4 µM (≈ 5.51 µg/mL); in assay [25] it was 16 µM (≈ 22 µg/mL). The MIC came to 5.66 µM (≈ 7.79 µg/mL) in the assay on Candida albicans; 4 µM (≈ 5.51 µg/mL) in assay [26]; 4 µM (≈ 5.51 µg/mL) in [27]; 2 µM (≈ 2.76 µg/mL) in [28]; 4 µM (≈ 5.51 µg/mL) in assay [20]; 4 µM (≈ 5.51 µg/mL) in assay [29].
In the case of `CC[C@H](C)[C@H](NC(=O)[C@H](CCCCN)NC(=O)[C@H](CCC(N)=O)NC(=O)[C@H](Cc1c[nH]c2ccccc12)NC(=O)[C@@H](NC(=O)[C@H](CCCCN)NC(=O)[C@@H](N)CCCCN)[C@@H](C)CC)C(=O)N[C@@H](CCCCN)C(=O)N[C@@H](CC(N)=O)C(=O)N[C@@H](Cc1ccccc1)C(=O)N[C@@H](Cc1ccccc1)C(=O)N[C@@H](CCC(N)=O)C(=O)N[C@@H](CCCCN)C(=O)N[C@@H](CC(C)C)C(=O)O` [KKIWQKIKNFFQKL], the MIC amounted to 6.25 µM (≈ 11.6 µg/mL) in the assay on Escherichia coli UTI89, 29 µM (≈ 53.6 µg/mL) in [30], 50 µM (≈ 92.5 µg/mL) in assay [10] and 6.25 µM (≈ 11.6 µg/mL) in [31].
As to `CC(C)C[C@H](NC(=O)[C@H](CCCN=C(N)N)NC(=O)[C@H](CCCCN)NC(=O)[C@H](CCCCN)NC(=O)[C@H](CC(C)C)NC(=O)[C@H](CC(N)=O)NC(=O)[C@H](C)NC(=O)[C@H](Cc1ccccc1)NC(=O)[C@H](CCCN=C(N)N)NC(=O)[C@H](CCCN=C(N)N)NC(=O)[C@H](CCCCN)NC(=O)[C@H](Cc1ccccc1)NC(=O)[C@H](CO)NC(=O)[C@H](C)NC(=O)CNC(=O)[C@H](Cc1ccccc1)NC(=O)[C@H](CCCCN)NC(=O)[C@H](CCCCN)NC(=O)[C@H](Cc1ccccc1)NC(=O)[C@H](Cc1ccc(O)cc1)NC(=O)[C@H](CCC(=O)O)NC(=O)[C@H](CCCCN)NC(=O)[C@H](CCCN=C(N)N)NC(=O)[C@H](CCCCN)NC(=O)CNC(=O)[C@H](Cc1ccccc1)NC(=O)[C@H](Cc1ccccc1)NC(=O)CN)C(N)=O` [GFFGKRKEYFKKFGASFKRRFANLKKRL], the MIC in assay [1] came out at 6 µM (≈ 20.7 µg/mL); in assay [2], 0.7 µM (≈ 2.42 µg/mL); against Escherichia coli C600 it was 1.5 µM (≈ 5.18 µg/mL).
With `NC(=O)[C@H](CCCN=C(N)N)NC(=O)[C@H](CCCN=C(N)N)NC(=O)[C@H](Cc1c[nH]c2ccccc12)NC(=O)[C@H](CCCN=C(N)N)NC(=O)[C@H](Cc1c[nH]c2ccccc12)NC(=O)[C@H](Cc1c[nH]c2ccccc12)NC(=O)[C@H](Cc1c[nH]c2ccccc12)NC(=O)[C@H](CCCN=C(N)N)NC(=O)[C@H](Cc1c[nH]c2ccccc12)NC(=O)[C@H](CCCN=C(N)N)NC(=O)[C@@H](N)CCCN=C(N)N` [RRWRWWWRWRR], the MIC in the assay on Escherichia coli 1005 was found to be 4 µM (≈ 7.54 µg/mL); in assay [7], 4 µM (≈ 7.54 µg/mL); in assay [24], 2 µM (≈ 3.77 µg/mL); in assay [10], 4 µM (≈ 7.54 µg/mL); in assay [25] it was 8 µM (≈ 15.1 µg/mL); in the assay with Candida albicans it was 4 µM (≈ 7.54 µg/mL). Moreover, the minimum inhibitory concentration (MIC) is 2 µM (≈ 3.77 µg/mL) in assay [26]; 4 µM (≈ 7.54 µg/mL) in assay [27]; 2 µM (≈ 3.77 µg/mL) in assay [28]; 4 µM (≈ 7.54 µg/mL) in assay [20]; 2 µM (≈ 3.77 µg/mL) in assay [29]; 4 µM and 8 µM in assay [32].
Regarding `CC[C@H](C)[C@H](NC(=O)[C@H](CCCCN)NC(=O)[C@H](CCC(N)=O)NC(=O)[C@H](Cc1c[nH]c2ccccc12)NC(=O)[C@@H](NC(=O)[C@H](CCCCN)NC(=O)[C@@H](N)CCCCN)[C@@H](C)CC)C(=O)N[C@@H](CCCCN)C(=O)N[C@@H](CCCN=C(N)N)C(=O)N[C@@H](Cc1ccccc1)C(=O)N[C@@H](Cc1ccccc1)C(=O)N[C@@H](CCC(N)=O)C(=O)N[C@@H](CCCCN)C(=O)N[C@@H](CC(C)C)C(=O)O` [KKIWQKIKRFFQKL], the MIC in the assay on Escherichia coli UTI89 is at least 50 µM; in assay [30], 7.5 µM (≈ 14.2 µg/mL); in [10] it was 50 µM (≈ 94.6 µg/mL); in assay [31] it was at least 50 µM.

A word on the MIC: it is the least concentration at which growth counts as inhibited. Lower therefore signals greater potency.
